{"source": "patent US6458806B1", "about": "“Aryl alkenamides derivatives as MCP-1 antagonists” (Millennium Pharmaceuticals, Inc., priority 1996, dated 2002)", "key": {"[1]": {"system": "T cell recruitment to skin DHR sites", "experiment": "Inhibition of T cell recruitment to rat skin inflammatory (DHR) sites", "assay_type": "in vivo", "procedure": "Inhibition of T Cell Recruitment to Rat Skin Inflammatory Sites by Compound 1\nInbred, approximately 200 gm, male Lewis rats were used in all experiments. Cutaneous delayed hypersensitivity (DHR) was induced as previously described (1). Briefly, rats were sensitized to KLH (Sigma Chemical Co., St. Louis, Mo.) by administering 50 μg KLH in 0.1 ml complete Freund's adjuvant (CFA; Sigma Chemical Co.) into each of 4 subcutaneous sites. After 14 days, DHR was elicited by the challenge of 5 μg KLH in PBS into multiple intradermal sites on the back. Analysis was performed 24 hours after antigen challenge. For each experiment, there were at least three groups of animals of at least four animals in each group. […]\nT cell recruitment at sites of DHR was quantified using methods previously described (1-4). […] The cells in the effluent were highly purified (>95%) rat T cells as assessed by anti-rat CD3 (monoclonal antibody KT3, Biosource International, Camarillo, Calif.) immunoreactivity by flow cytometry. […] Skin challenge sites (8 mm in diameter) were counted on a γ counter 24 hours after injection of radiolabeled T cells. Lung, liver, and spleen were also collected and counted as comparative indices for evaluation of input.\nStatistical significance was determined using a paired Student's t-test. […]"}, "[2]": {"system": "CD3-Blasts", "experiment": "CD3-Blast chemotaxis assay (transendothelial migration to MCP-1)", "assay_type": "cell-based", "conditions": "ECV-304; migration of human CD3-Blasts to about 10 nM MCP-1 across ECV304 endothelial cells, approximately 1 hour", "excerpt": "CD3—Blast Chemotaxis Assay\nRecombinant human MCP-1 was obtained from Peprotech (Rockey Hill, N.J.). T lymphocyte blast cells (CD3-Blasts) were generated by standard protocols (Coligan, J. E., A. M. Kruisbeek, D. H. Macgulies, E. M. Shevach, and W. Strober, editors. 1992. Current Protocols in Immunology. John Wiley and Sons, New York, 7.1.2, 7.10.1-7.10.10). Briefly, human peripheral blood mononuclear cells (PBMC) were isoltated from heparinized venous blood by Percoll density gradient centrifugation (d=1.088) at room temperature. RBCs were removed by hypotonic lysis or Dextran sedimentation. […] CD3-Blast chemotaxis was assessed no sooner than 3 to 4 days after transfer to the IL-2 containing medium using a modification of a transendothelial migration assay (Carr. M. W., S. J. Roth, B. Luther, S. S. Rose, and T. A. Springer. 1994. Monocyte chemoattractant protein 1 acts as a T-lymphocyte chemoattractant. Proc. Natl. Acad. Sci. USA 91:3652-6). […] Background migration was determined by counting cells that migrated in the absence of MCP-1 in the lower chamber. […] The percent inhibition by compounds of directed migration was determined by the following formula: [formula] […]"}}, "note": "Where a name gives a salt, the structure may show the parent alone."}
{"smiles": "O=C(/C=C/C=C/c1ccc(Cl)c(Cl)c1)NCCCN1CCCCC1", "note": "[Example 1, 5-(3,4-Dichloro-phenyl)-penta-2,4-dienoic Acid (3-piperidin-1-yl-propyl)-amide-HCl]", "values": [{"measurement": "inhibition of T cell recruitment in rat DHR (result in words)", "setting": "[1]; 30 mg/kg per os at time of antigen challenge, 24 hour period, FIG. 2", "value": "statisticallly significant inhibitory effect"}, {"measurement": "inhibition of recruitment of 111In-labeled rat T cells to skin DHR sites", "setting": "[1]; Lewis rats, 30 mg/kg once per os at time of antigen (KLH) challenge, 24 hours, P<0.05, dose-dependent", "value": "approximately 80%"}, {"measurement": "IC50", "setting": "[2]", "value": 23, "unit": "µM"}]}
